Laboratory results taken from publication PMC3591361 (PLoS ONE, 2013).
≈ marks a conversion by molar mass, not a printed value.

Legend:
in vivo = assay: in vivo; parameters: species or system mice; conditions: i.v.; for half-life: female, athymic nude (nu/nu), mouse, iv, read-out: t1/2 (elimination half-life); for plasma concentration at 4 h: free drug administration (combined free drugs in DMSO)
Protocol: Human ovarian cancer SKOV-3 cells (2 x 10^6 in 0.1 ml matrigel/DMEM mixture) were implanted subcutaneously in each flank of 5–6 week-old female athymic nude mice (nu/nu, Charles River, Wilmington, MA). The tumor size was measured using a caliper, and the tumor volume was calculated as ½ × length × width^2.
Once SKOV-3 tumor volumes reached 100–300 mm^3, the mice were randomized into study groups (4 mice per group). […] At 5, 10, 15, 30, 60, 120 and 240 min post injection, whole blood was collected via the retro-orbital bleeding. Normal organs (liver, lung, spleen, kidney and heart) and tumor tissues were harvested at 120 min. […] The HPLC system (Waters, Milford, MA) consisted of a Waters 2795 pump, a Phenomenex (Torrance, CA) C8 column (5 µm, i.d. 4.6 mm × 150 mm) and a Waters 996 photodiode array detector. α-Naphthoflavone was used as an internal standard. […] For tissue homogenate samples, a gradient elution of A: sodium phosphate buffer and B: methanol (0–30 min 46% A, 30.01–40 min 28% A, 40.01–45 min 46% A) was used. The flow rate was 1.5 ml/min at 40°C. The assay methodology was established using blank plasma and tissue homogenate samples spiked with known drug concentrations. […] Representative chromatograms of the pure drugs, an extract of drug-spiked liver tissue, and an extract of blank liver tissue at 227, 333 and 281 nm are shown in Fig. 2.

[1] = free drug; stated without reference; cited from earlier work
[2] = combination therapy; weekly i.v. infusion for paclitaxel, twice-weekly i.v. infusion for 17-AAG; cited from earlier work
[3] = Stability of ICG fluorescence in HBS at 37°C; type: physicochemical
Protocol: To confirm the incorporation of ICG into the micelles, the stability of ICG-labeled micelles was studied at 37°C. Freshly prepared free ICG solution in HBS at the identical concentration was used as a control. At 0, 2, 4, 8, 24 and 48 h, aliquots of the micellar or free ICG solution were analyzed for the fluorescence intensity at 800 nm using Odyssey imaging system (LI-COR Biosciences, Lincoln, NE). All samples were prepared and analyzed in triplicates.

[4] = In vivo whole-body NIR fluorescence imaging in SKOV-3 tumor-bearing mice; conditions: i.v., ICG dose 2 mg/kg, 800 nm channel
Protocol: ICG-labeled micelles were administered to SKOV-3 tumor-bearing mice via the tail vein injection at an ICG dose of 2 mg/kg. Freshly prepared free ICG solution in HBS was i.v. injected at the same dose to the control mice. Immediately following the injection (0 h) and at 1, 2, 4, 6, 24 and 48 h, the mice were anesthetized under a continuous flow of isoflurane/oxygen, and the spectral fluorescence signals of the whole body images (800 nm channel) were obtained using the Odyssey imaging system.

[5] = plasma, combined free drugs in DMSO, 20 mg/kg paclitaxel + 37.5 mg/kg 17-AAG, plasma, mean ± SD, n = 4

decrease in fluorescence emission intensity ([3]; 8 h) | decrease in fluorescence emission intensity ([3]; 48 h) | clearance of fluorescence signal from the circulation/body [4] | Compound | half-life (in vivo; [5]) | plasma concentration at 4 h (in vivo) | aqueous solubility [1] | maximum tolerated dose in cancer patients [2] | AUC (in vivo; combined free drugs in DMSO, 20 mg/kg paclitaxel + 37.5 mg/kg 17-AAG, plasma, mean ± SD, n = 4)
– | – | – | C=CCNC1=C2C[C@@H](C)C[C@H](OC)[C@H](O)[C@@H](C)/C=C(\C)[C@H](OC(N)=O)[C@@H](OC)/C=C\C=C(/C)C(=O)NC(=CC1=O)C2=O [17-AAG, Tanespimycin] | 20.3 ± 2.5 min | below the detection limit | 17 µM (≈ 9.96 µg/mL) | 175 mg/m^2 | –
about 50% | over 80% | rapidly cleared from the circulation | CC1(C)C(/C=C/C=C/C=C/C=C2\N(CCCCS(=O)(=O)O)c3ccc4ccccc4c3C2(C)C)=[N+](CCCCS(=O)(=O)[O-])c2ccc3ccccc3c21 [ICG, indocyanine green] | – | – | – | – | –
– | – | – | CC(=O)O[C@H]1C(=O)[C@@]2(C)[C@H]([C@H](OC(=O)c3ccccc3)[C@]3(O)C[C@H](OC(=O)[C@H](O)[C@@H](NC(=O)c4ccccc4)c4ccccc4)C(C)=C1C3(C)C)[C@]1(OC(C)=O)CO[C@@H]1C[C@@H]2O [paclitaxel, Paclitaxel] | ~40 min | below the detection limit | – | 80 mg/m^2 | 415.3±56.7 uM⋅min
